Calls of active or inactive are those of the source. The rule behind the calls is not given here.
Key:
[1] = target: Serine/threonine-protein kinase 24 (Homo sapiens) (UniProt Q9Y6E0); assay: Inhibition of MST3 Lys2 labeling site harbouring IHRDIKAANVLLSEHGEVK in human A-375 cells at 5 uM by KiNativ Profiling analysis relative to control; type: cell-based
[2] = target: Cyclin-dependent kinase 4/cyclin D1 (Homo sapiens) (UniProt P11802+P24385); assay: Inhibition of CDK4/cyclinD1 (unknown origin) at 1 uM by Ambit Kinomescan binding assay relative to control; values are per cent of control
[3] = target: Tyrosine-protein kinase Yes (Homo sapiens) (UniProt P07947); assay: Inhibition of YES ACT labeling site in human A-375 cells at 0.05 uM by KiNativ Profiling analysis relative to control; type: cell-based
Tyrosine-protein kinase Yes (Homo sapiens), sequence (P07947 2-543 limits assumed): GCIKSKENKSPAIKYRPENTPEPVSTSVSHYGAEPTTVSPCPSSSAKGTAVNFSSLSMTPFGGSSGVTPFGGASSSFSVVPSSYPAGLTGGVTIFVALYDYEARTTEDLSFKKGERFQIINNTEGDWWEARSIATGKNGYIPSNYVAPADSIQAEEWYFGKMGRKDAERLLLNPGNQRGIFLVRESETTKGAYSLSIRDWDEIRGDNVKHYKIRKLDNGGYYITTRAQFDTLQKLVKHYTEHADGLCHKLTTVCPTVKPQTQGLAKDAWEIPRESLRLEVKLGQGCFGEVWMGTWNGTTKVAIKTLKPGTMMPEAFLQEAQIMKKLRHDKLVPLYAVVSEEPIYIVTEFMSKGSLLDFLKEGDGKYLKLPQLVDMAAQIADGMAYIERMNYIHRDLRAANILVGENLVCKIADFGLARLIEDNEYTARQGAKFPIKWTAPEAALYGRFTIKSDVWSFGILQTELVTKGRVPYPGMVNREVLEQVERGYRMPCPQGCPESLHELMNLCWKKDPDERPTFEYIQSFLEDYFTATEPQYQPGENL

[4] = target: Phosphatidylinositol 4-kinase alpha (Homo sapiens) (UniProt P42356); assay: Inhibition of PI4KA ATP labeling site in human A-375 cells at 0.05 uM by KiNativ Profiling analysis relative to control; type: cell-based
Phosphatidylinositol 4-kinase alpha (Homo sapiens), sequence (P42356 whole entry, looked up): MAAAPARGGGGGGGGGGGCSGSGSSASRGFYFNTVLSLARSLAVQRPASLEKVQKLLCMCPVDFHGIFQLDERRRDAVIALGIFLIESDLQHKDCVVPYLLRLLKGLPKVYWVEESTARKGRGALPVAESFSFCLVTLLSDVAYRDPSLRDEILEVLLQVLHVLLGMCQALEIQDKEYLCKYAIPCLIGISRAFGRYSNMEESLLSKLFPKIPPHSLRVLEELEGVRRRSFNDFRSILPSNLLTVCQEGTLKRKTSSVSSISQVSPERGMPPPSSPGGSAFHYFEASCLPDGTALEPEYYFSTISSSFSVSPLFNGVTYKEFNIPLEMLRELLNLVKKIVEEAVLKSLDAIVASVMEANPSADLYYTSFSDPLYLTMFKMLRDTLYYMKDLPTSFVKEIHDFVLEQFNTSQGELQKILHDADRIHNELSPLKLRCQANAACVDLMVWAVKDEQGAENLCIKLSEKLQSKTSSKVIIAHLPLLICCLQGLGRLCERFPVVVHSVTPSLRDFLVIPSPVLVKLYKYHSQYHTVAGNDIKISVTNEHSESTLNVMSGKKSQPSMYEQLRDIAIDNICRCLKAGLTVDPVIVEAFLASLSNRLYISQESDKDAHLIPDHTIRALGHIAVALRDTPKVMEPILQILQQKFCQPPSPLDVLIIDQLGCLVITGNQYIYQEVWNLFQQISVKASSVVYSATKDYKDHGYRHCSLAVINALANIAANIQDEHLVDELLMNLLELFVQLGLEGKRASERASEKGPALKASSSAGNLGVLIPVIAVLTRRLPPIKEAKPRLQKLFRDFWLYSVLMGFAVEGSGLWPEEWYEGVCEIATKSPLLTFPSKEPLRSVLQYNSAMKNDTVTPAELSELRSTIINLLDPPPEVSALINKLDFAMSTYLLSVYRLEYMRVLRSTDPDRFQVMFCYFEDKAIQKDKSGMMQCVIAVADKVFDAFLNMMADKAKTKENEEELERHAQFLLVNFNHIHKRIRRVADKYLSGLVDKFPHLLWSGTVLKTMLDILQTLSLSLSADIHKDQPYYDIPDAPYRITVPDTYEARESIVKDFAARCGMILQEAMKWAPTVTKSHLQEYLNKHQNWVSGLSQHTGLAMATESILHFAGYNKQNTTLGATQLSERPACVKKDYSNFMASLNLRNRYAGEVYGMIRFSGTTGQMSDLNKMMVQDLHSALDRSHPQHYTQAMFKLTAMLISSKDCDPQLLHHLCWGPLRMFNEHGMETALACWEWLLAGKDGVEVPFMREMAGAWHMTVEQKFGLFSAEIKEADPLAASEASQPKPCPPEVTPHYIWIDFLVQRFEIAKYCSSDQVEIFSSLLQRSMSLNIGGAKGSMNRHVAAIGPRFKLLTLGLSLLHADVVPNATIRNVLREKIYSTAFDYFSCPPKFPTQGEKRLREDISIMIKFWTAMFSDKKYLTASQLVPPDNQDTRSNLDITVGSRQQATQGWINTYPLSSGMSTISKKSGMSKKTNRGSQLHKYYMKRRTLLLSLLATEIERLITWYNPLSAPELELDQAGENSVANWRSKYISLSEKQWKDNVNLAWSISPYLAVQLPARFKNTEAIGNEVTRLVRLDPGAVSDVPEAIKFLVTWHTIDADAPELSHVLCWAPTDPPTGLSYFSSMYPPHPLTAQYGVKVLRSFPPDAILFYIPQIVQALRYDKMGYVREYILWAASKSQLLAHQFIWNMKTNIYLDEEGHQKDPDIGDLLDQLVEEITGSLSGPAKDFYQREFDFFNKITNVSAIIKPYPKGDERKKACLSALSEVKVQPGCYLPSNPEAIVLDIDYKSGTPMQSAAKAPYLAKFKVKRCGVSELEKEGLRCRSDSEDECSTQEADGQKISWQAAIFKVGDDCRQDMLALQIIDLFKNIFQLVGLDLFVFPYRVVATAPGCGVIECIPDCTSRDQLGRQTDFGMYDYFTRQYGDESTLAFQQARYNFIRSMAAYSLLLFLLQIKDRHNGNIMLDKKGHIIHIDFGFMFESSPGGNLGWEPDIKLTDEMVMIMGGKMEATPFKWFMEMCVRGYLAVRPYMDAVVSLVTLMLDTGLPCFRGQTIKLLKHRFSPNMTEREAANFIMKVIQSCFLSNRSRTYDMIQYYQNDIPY

[5] = target: Serine/threonine-protein kinase A-Raf (Homo sapiens) (UniProt P10398); assay: Inhibition of ARAF Lys2 labeling site in human A-375 cells at 0.5 uM by KiNativ Profiling analysis relative to control; type: cell-based
[6] = target: Ribosomal protein S6 kinase alpha-6 (Homo sapiens) (UniProt Q9UK32); assay: Inhibition of C-terminal RPS6KA6 kinase domain 2 (unknown origin) at 10 uM by Ambit Kinomescan binding assay
Ribosomal protein S6 kinase alpha-6 (Homo sapiens), sequence (Q9UK32 whole entry, the tested form may be a part): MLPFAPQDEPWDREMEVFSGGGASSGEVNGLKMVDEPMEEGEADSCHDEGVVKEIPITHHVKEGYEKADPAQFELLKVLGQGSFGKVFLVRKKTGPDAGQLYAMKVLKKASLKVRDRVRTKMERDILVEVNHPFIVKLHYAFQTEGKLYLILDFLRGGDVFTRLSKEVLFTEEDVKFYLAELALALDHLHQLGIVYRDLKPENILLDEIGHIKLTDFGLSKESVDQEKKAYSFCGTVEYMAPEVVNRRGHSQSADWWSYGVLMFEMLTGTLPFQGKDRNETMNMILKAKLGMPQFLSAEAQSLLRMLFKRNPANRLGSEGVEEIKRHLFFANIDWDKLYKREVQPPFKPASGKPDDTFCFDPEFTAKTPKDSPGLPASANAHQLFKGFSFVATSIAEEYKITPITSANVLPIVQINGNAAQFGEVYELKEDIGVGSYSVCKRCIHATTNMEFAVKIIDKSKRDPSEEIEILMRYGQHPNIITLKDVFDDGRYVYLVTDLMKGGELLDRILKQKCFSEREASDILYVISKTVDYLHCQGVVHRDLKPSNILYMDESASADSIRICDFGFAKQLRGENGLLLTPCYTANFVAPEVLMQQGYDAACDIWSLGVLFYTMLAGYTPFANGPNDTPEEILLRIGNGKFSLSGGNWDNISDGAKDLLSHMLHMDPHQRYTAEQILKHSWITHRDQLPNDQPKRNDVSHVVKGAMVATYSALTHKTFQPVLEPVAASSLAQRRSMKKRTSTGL

[7] = target: Dual specificity mitogen-activated protein kinase kinase; MEK1/2 (Homo sapiens) (UniProt P36507+Q02750); assay: Inhibition of MAP2K1/2 K2 labeling site in human Huh-7 cells at 10 uM by KiNativ Profiling analysis relative to control; type: cell-based
[8] = target: Serine/threonine-protein kinase 38-like (Homo sapiens) (UniProt Q9Y2H1); assay: Inhibition of NDR2 ACT labeling site in human Huh-7 cell lysate at 1 uM by KiNativ Profiling analysis relative to control; type: subcellular
Serine/threonine-protein kinase 38-like (Homo sapiens), sequence (Q9Y2H1 2-464 limits assumed): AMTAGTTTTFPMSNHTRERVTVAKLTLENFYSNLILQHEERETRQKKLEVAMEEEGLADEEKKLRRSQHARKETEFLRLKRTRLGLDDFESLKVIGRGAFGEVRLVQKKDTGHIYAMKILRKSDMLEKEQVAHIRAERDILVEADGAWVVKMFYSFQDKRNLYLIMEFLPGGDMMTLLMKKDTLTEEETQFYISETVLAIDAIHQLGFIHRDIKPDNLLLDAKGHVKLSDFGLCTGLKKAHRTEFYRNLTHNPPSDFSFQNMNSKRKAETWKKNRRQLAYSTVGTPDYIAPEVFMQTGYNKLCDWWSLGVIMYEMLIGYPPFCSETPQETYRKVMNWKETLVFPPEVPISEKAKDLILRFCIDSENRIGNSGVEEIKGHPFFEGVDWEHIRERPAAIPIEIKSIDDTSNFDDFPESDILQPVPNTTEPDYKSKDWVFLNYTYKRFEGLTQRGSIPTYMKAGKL

[9] = target: T1, Serine/threonine-protein kinase TAO1 (Homo sapiens) (UniProt Q7L7X3); assay: Inhibition of TAO1 Lys2 labeling site in human Huh-7 cell lysate at 1 uM by KiNativ Profiling analysis relative to control; type: subcellular
T1 sequence (whole entry): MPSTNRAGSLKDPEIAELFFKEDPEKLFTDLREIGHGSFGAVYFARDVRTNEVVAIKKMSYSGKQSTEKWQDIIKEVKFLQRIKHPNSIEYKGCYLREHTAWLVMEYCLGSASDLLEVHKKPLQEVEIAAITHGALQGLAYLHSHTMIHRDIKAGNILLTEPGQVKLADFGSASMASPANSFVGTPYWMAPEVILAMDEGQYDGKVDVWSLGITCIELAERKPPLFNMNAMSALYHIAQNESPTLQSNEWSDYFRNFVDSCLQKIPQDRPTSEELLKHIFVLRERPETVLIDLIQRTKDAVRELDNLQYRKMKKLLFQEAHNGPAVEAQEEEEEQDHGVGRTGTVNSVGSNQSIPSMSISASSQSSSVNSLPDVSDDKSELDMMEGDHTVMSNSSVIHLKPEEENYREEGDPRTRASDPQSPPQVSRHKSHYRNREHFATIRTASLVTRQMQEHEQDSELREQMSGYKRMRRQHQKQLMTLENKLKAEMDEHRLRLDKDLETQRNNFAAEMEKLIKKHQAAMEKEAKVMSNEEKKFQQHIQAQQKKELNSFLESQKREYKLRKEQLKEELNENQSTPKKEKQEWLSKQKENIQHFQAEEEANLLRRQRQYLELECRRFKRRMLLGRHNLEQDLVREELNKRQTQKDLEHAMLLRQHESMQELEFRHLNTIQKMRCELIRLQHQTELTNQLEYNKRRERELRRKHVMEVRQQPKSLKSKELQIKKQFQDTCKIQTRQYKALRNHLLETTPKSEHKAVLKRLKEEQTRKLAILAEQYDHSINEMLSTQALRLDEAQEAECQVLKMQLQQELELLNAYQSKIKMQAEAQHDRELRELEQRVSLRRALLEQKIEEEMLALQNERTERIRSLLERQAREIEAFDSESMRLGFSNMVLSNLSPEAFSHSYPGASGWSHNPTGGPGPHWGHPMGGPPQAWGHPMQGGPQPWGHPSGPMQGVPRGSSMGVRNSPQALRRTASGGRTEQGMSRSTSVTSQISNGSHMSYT

[10] = target: Serine/threonine-protein kinase 4 (Homo sapiens) (UniProt Q13043); assay: Inhibition of MST1 Lys1 labeling site harbouring ETGQIVAIKQVPVESDLQEIIK in human Huh-7 cell lysate at 1 uM by KiNativ Profiling analysis relative to control
Serine/threonine-protein kinase 4 (Homo sapiens), sequence (Q13043 whole entry, looked up): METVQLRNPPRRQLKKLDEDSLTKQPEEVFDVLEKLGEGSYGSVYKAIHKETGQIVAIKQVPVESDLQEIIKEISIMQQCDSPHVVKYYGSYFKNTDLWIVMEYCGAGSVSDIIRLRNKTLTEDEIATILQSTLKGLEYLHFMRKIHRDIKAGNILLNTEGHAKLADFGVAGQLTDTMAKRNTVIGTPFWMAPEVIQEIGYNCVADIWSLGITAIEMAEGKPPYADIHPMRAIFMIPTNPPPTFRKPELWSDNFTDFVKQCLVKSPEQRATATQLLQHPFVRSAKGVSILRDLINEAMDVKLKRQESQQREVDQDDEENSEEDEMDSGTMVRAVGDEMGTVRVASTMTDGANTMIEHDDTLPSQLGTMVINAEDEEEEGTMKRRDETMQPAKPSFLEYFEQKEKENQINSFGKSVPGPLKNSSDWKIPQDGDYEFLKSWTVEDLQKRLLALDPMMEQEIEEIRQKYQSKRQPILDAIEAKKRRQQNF

[11] = target: T2, Interleukin-1 receptor-associated kinase 4 (Homo sapiens) (UniProt Q9NWZ3); assay: Inhibition of IRAK4 Lys2 labeling site in human Huh-7 cell lysate at 1 uM by KiNativ Profiling analysis relative to control; type: subcellular
T2 sequence (whole entry): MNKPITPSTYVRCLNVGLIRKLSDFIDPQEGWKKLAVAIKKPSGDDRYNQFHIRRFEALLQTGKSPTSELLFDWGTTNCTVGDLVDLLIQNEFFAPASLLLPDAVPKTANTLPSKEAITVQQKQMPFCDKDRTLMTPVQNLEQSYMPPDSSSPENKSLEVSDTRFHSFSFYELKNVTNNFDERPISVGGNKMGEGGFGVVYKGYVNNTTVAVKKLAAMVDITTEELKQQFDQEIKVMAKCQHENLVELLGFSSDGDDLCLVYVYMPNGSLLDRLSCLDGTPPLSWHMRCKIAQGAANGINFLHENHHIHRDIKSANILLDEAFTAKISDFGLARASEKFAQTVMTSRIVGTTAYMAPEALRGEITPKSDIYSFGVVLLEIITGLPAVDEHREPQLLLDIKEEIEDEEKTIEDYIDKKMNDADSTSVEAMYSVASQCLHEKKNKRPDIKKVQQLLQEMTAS

[12] = target: T3, Aurora kinase A (Homo sapiens) (UniProt O14965); assay: Inhibition of AurA Lys2 labeling site in human Huh-7 cell lysate at 1 uM by KiNativ Profiling analysis relative to control; type: subcellular
T3 sequence (whole entry): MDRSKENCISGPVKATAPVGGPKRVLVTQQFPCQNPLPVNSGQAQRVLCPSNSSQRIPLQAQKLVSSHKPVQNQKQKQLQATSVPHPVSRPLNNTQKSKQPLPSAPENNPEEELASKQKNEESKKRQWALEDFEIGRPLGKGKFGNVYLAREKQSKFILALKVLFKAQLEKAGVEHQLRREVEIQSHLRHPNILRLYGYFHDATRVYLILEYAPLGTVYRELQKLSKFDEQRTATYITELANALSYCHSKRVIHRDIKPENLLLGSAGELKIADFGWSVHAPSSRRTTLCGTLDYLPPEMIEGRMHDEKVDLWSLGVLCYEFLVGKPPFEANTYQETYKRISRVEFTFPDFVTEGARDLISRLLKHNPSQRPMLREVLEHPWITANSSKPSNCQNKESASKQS

Serine/threonine-protein kinase 24 (Homo sapiens), sequence (Q9Y6E0 whole entry, looked up): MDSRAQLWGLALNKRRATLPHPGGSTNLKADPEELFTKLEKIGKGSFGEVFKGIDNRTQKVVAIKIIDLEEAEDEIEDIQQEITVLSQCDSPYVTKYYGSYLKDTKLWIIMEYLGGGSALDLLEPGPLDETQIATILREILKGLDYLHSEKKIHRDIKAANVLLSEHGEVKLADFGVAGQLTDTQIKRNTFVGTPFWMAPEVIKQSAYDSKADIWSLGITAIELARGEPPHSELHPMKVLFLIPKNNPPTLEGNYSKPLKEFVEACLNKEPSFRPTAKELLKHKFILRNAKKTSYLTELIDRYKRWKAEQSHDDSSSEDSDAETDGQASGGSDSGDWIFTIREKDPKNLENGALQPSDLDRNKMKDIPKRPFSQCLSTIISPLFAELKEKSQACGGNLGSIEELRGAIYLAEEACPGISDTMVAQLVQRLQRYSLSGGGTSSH

Structure (SMILES): CCN1CCN(Cc2ccc(NC(=O)c3ccc(C)c(/C=C/c4cnc5[nH]ccc5c4OC)c3)cc2C(F)(F)F)CC1
- inhibition [1]: -0.1%
- percent of control [2]: 100%
- inhibition [3]: 38.9%
- inhibition [4]: 0.8%

Structure (SMILES): CCN1CCN(Cc2ccc(NC(=O)c3ccc(C)c(Oc4ccnc5[nH]ccc45)c3)cc2C(F)(F)F)CC1
- inhibition [5]: 18.4%
- inhibition [6]: inactive
- inhibition [7]: 14.4%

Structure (SMILES): CNc1cc(Oc2cc(C(=O)Nc3cc(N4CCN(C)CC4)cc(C(F)(F)F)c3)ccc2C)ncn1
- inhibition [8]: 4.2%
- inhibition [9]: -1.2%
- inhibition [10]: -1.3%
- inhibition [11]: 8.4%
- inhibition [12]: 6.6%

— ChEMBL document CHEMBL5696442, “Discovery of type II inhibitors of TGFβ-activated kinase 1 (TAK1) and mitogen-activated protein kinase kinase kinase kinase 2 (MAP4K2)” (J Med Chem, 2015)
